We go through 20 compounds from US20250325677A1, “STAT6 DEGRADERS” (Gilead Sciences, Inc., priority 2024, published 2025).

SMILES strings stand for the structures. Where “and” joins values, the source holds several entries; their conditions need not be identical. Equal values may be shown once.

One assay has as its system eotaxin-3 release. In words: Human whole blood eotaxin-3 assay (IL-4 stimulated). The class given is cell-based. To be noted: human whole blood, IL-4 0.4 nM, 48 hours; geometric mean; given for compounds with >80% Emax; read-out: Eotaxin-3 EC50. The protocol:
Human Whole Blood Eotaxin-3 Assay
This was a human whole blood assay using recombinant human Interleukin 4 to stimulate the blood and measuring the ability of the test compounds to inhibit eotaxin-3 release. Compounds or media were added to the wells and incubated together with human whole blood for 120 minutes at 37° C. Subsequently, recombinant IL-4 was added at a final concentration of 0.4 nM. The plates were incubated for 48 hours.
Test compounds which inhibited eotaxin-3 release upon stimulation with human IL-4 (E. coli) interfered with the signaling in human whole blood are expected to have activity in human beings. […] The EC50 value indicates at which concentration test compounds were active and in inhibiting the eotaxin-3 release. As eotaxin-3 release is down-stream of STAT6 signaling both STAT6 inhibitors and STAT6 degraders are active in this assay.
The data from the human whole blood eotaxin-3 assay is shown below for Examples 3e27, 3e50, 3e17, and 3e51 (where the effect in % is plotted against the test concentration in M on a log-scale).

In a further assay the target is STAT6 (Homo sapiens (Human), UniProt P42226). In words: STAT6 degrader assay (HiBiT, HeLa LgBiT clone 4.14). Conditions: HeLa LgBiT clone 4.14, 4-24 h; for DC50: geometric mean, given for compounds with >80% Emax, read-out: STAT6 degradation DC50. The class given is cell-based. The method in brief:
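DC50 (nM) comes from luminescence of non-degraded STAT6 read 0.5 h after Nano-GLO addition, following 4-24 h compound exposure at 37° C. Cells were HeLa clone 4.14 expressing LgBiT with a CRISPR HiBiT tag on endogenous STAT6; 50 μM terfenadine set full degradation.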
Background: The HiBiT peptide binds its large partner to form an active luciferase.

Sequence of STAT6 (P42226 whole entry): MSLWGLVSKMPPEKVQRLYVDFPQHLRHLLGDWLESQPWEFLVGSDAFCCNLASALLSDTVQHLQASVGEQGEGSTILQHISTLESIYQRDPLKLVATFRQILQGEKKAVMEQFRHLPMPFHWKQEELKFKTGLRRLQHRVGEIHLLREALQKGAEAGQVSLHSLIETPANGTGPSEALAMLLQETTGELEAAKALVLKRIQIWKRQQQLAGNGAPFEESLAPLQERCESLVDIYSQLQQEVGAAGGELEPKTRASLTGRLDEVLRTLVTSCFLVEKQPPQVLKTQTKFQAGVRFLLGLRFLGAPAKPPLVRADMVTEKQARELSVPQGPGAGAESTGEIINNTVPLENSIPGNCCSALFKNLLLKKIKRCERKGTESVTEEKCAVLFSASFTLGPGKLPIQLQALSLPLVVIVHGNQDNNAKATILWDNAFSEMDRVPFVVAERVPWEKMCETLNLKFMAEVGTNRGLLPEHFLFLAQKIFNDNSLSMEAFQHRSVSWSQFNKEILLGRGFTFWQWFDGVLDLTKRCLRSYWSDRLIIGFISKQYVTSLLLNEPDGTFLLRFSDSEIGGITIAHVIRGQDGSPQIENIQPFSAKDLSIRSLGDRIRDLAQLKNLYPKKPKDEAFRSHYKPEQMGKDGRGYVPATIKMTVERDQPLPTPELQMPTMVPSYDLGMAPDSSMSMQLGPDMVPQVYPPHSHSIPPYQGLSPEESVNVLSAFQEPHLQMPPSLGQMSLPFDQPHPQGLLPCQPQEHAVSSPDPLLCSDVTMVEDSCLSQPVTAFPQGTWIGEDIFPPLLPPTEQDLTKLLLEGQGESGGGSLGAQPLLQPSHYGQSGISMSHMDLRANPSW

`C[C@H]1CN(Cc2cc3c(cc2F)n(C2CCC(=O)NC2=O)c(=O)n3C)CCN1CC1CCN(C(=O)c2ccc(C3CCN([C@@H](C)c4cc5c(-c6ccc(N)nc6)ccnc5n4C)CC3)cc2)CC1` (mixture of isomers) [Example 3e34, 3-(5-(((S)-4-((1-(4-(1-((S)-1-(4-(6-aminopyridin-3-yl)-1-methyl-1H-pyrrolo[2,3-b]pyridin-2-yl)ethyl)piperidin-4-yl)benzoyl)piperidin-4-yl)methyl)-3-methylpiperazin-1-yl)methyl)-6-fluoro-3-methyl-2-oxo-2,3-dihydro-1H-benzo[d]imidazol-1-yl)piperidine-2,6-dione]: the 50% effective concentration (EC50) (commonly the concentration needed to bring the measured effect to its halfway point) with eotaxin-3 release is 1.8 nM. The DC50 (commonly the concentration giving 50% degradation) on STAT6 came out at 0.4 nM.
The like results for `C[C@H]1CN(Cc2ccc3c(c2)n(C)c(=O)n3[C@H]2CCC(=O)NC2=O)CCN1CC1CCN(C(=O)c2ccc(C3CCN(Cc4cc5c(-c6ccc(N)nc6)ccnc5n4C)CC3)cc2)CC1` (single isomer, unassigned) [Example 3e19] were, in that order, 20.9 nM and 0.7 nM.
The like results for `C[C@H]1CN(Cc2ccc3c(c2)n(C)c(=O)n3[C@@H]2CCC(=O)NC2=O)CCN1CC1CCN(C(=O)c2ccc(C3CCN(Cc4cc5c(-c6ccc(N)nc6)ccnc5n4C)CC3)cc2)CC1` (single isomer, unassigned) [Example 3e20] were, in that order, 29.8 nM and 1.1 nM.
The like results for `C[C@H]1CN(Cc2ccc3c(c2)n(C)c(=O)n3[C@H]2CCC(=O)NC2=O)CCN1CC1CCN(C(=O)c2ccc(C3CCN([C@@H](C)c4cc5c(-c6ccc(N)nc6)ccnc5n4C)CC3)cc2)CC1` (single isomer, unassigned) [Example 3e46] were, in that order, 0.8 nM and 0.3 nM.
On to `C[C@H]1CN(Cc2ccc3c(c2)n(C)c(=O)n3[C@@H]2CCC(=O)NC2=O)CCN1CC1CCN(C(=O)c2ccc(C3CCN([C@@H](C)c4cc5c(-c6ccc(N)nc6)ccnc5n4C)CC3)cc2)CC1` (single isomer, unassigned) [Example 3e49], for which the concentration for a half-maximal effect (EC50) in the assay on eotaxin-3 release is 1.4 nM. Also, the DC50 at STAT6 worked out at 0.3 nM.
The like results for `C[C@H]1CN(Cc2ccc3c(c2)n(C2CC2)c(=O)n3[C@H]2CCC(=O)NC2=O)CCN1CC1CCN(C(=O)c2ccc(C3CCN([C@@H](C)c4cc5c(-c6ccc(N)nc6)ccnc5n4C)CC3)cc2)CC1` (single isomer, unassigned) [Example 3e50] were, in that order, 2.3 nM and 1 nM.
For `C[C@H]1CN(Cc2ccc3c(c2)n(C2CC2)c(=O)n3[C@@H]2CCC(=O)NC2=O)CCN1CC1CCN(C(=O)c2ccc(C3CCN([C@@H](C)c4cc5c(-c6ccc(N)nc6)ccnc5n4C)CC3)cc2)CC1` (single isomer, unassigned) [Example 3e51], the 50% effective concentration (EC50) in the assay with eotaxin-3 release stood at 3.1 nM. For the same compound, at STAT6, the DC50 was determined as 0.8 nM.
Take `C[C@H]1CN(Cc2cc3c(cc2F)n([C@@H]2CCC(=O)NC2=O)c(=O)n3C)CCN1CC1CCN(C(=O)c2ccc(C3CCN([C@@H](C)c4cc5c(-c6ccc(N)nc6)ccnc5n4C)CC3)cc2)CC1` (single isomer, unassigned) [Example 3e60]: the EC50 with eotaxin-3 release is 1.2 nM. For the same compound, the DC50 at STAT6 is 0.3 nM.
For `C[C@H]1CN(Cc2cc3c(cc2F)n([C@@H]2CCC(=O)NC2=O)c(=O)n3C2CC2)CCN1CC1CCN(C(=O)c2ccc(C3CCN([C@@H](C)c4cc5c(-c6ccc(N)nc6)ccnc5n4C)CC3)cc2)CC1` (single isomer, unassigned) [Example 3e61], the half-maximal effective concentration (EC50) with eotaxin-3 release is 3.5 nM. Also, on STAT6, the 50% degradation concentration (DC50) stood at 1.4 nM.
The like results for `C[C@H]1CN(Cc2cc3c(cc2F)n([C@H]2CCC(=O)NC2=O)c(=O)n3C2CC2)CCN1CC1CCN(C(=O)c2ccc(C3CCN([C@@H](C)c4cc5c(-c6ccc(N)nc6)ccnc5n4C)CC3)cc2)CC1` (single isomer, unassigned) [Example 3e62] were, in that order, 4.9 nM and 0.8 nM.
The matching figures for `C[C@H]1CN(Cc2cc3c(cc2F)n([C@H]2CCC(=O)NC2=O)c(=O)n3C)CCN1CC1CCN(C(=O)c2ccc(C3CCN([C@@H](C)c4cc5c(-c6ccc(N)nc6)ccnc5n4C)CC3)cc2)CC1` (single isomer, unassigned) [Example 3e63]: 1.2 nM and 0.2 nM.
The like results for `CC[C@H]1CN(Cc2ccc3c(c2)n(C2CC2)c(=O)n3[C@@H]2CCC(=O)NC2=O)CCN1CC1CCN(C(=O)c2ccc(C3CCN([C@@H](C)c4cc5c(-c6ccc(N)nc6)ccnc5n4C)CC3)cc2)CC1` (single isomer, unassigned) [Example 3e64] were, in that order, 6 nM and 2 nM.
Turning to `CC[C@H]1CN(Cc2ccc3c(c2)n(C2CC2)c(=O)n3[C@H]2CCC(=O)NC2=O)CCN1CC1CCN(C(=O)c2ccc(C3CCN([C@@H](C)c4cc5c(-c6ccc(N)nc6)ccnc5n4C)CC3)cc2)CC1` (single isomer, unassigned) [Example 3e65], the EC50 in the assay on eotaxin-3 release turned out to be 5.4 nM. Further, on STAT6, the DC50 turned out to be 2.6 nM.
The matching figures for `CNc1ccc(-c2ccnc3c2cc([C@H](C)N2CCC(c4ccc(C(=O)N5CCC(CN6CCN(Cc7ccc8c(c7)n(C7CC7)c(=O)n8[C@H]7CCC(=O)NC7=O)C[C@@H]6C)CC5)cc4)CC2)n3C)cn1` (single isomer, unassigned) [Example 3h26]: 3.1 nM and 1.4 nM.
Turning to `CNc1ccc(-c2ccnc3c2cc([C@H](C)N2CCC(c4ccc(C(=O)N5CCC(CN6CCN(Cc7ccc8c(c7)n(C7CC7)c(=O)n8[C@@H]7CCC(=O)NC7=O)C[C@@H]6C)CC5)cc4)CC2)n3C)cn1` (single isomer, unassigned) [Example 3h27], the half-maximal effective concentration (EC50) with eotaxin-3 release was 5.8 nM. The DC50 at STAT6 stood at 1.8 nM.
The matching figures for `Cn1c(CN2CCC(c3ccc(C(=O)N4CCC(CN5CCN(Cc6ccc7c(c6)n(C)c(=O)n7C6CCC(=O)NC6=O)CC5)CC4)cc3)CC2)cc2c(-c3ccc(N)nc3)ccnc21` (stereo not shown) [Example 3e2, 3-(5-((4-((1-(4-(1-((4-(6-aminopyridin-3-yl)-1-methyl-1H-pyrrolo[2,3-b]pyridin-2-yl)methyl)piperidin-4-yl)benzoyl)piperidin-4-yl)methyl)piperazin-1-yl)methyl)-3-methyl-2-oxo-2,3-dihydro-1H-benzo[d]imidazol-1-yl)piperidine-2,6-dione]: 98.7 nM and 4.6 nM.
Regarding `COCc1nc2cc(-c3ccnc4c3cc(CN3CCC(c5ccc(C(=O)N6CCC(CN7CCN(Cc8ccc9c(c8)n(C)c(=O)n9C8CCC(=O)NC8=O)CC7)CC6)cc5)CC3)n4C)ccc2[nH]1` (stereo not shown) [Example 3e3, 3-(5-((4-((1-(4-(1-((4-(2-(methoxymethyl)-1H-benzo[d]imidazol-5-yl)-1-methyl-1H-pyrrolo[2,3-b]pyridin-2-yl)methyl)piperidin-4-yl)benzoyl)piperidin-4-yl)methyl)piperazin-1-yl)methyl)-3-methyl-2-oxo-2,3-dihydro-1H-benzo[d]imidazol-1-yl)piperidine-2,6-dione], in the assay on eotaxin-3 release, the EC50 was found to be 14.4 nM. In addition, at STAT6, the 50% degradation concentration (DC50) turned out to be 0.8 nM.
As for `C[C@H]1CN(Cc2ccc3c(c2)n(C)c(=O)n3C2CCC(=O)NC2=O)CCN1CC1CCN(C(=O)c2ccc(C3CCN(Cc4cc5c(-c6ccc(N)nc6)ccnc5n4C)CC3)cc2)CC1` (stereo partly drawn) [Example 3e9, 3-(5-(((S)-4-((1-(4-(1-((4-(6-aminopyridin-3-yl)-1-methyl-1H-pyrrolo[2,3-b]pyridin-2-yl)methyl)piperidin-4-yl)benzoyl)piperidin-4-yl)methyl)-3-methylpiperazin-1-yl)methyl)-3-methyl-2-oxo-2,3-dihydro-1H-benzo[d]imidazol-1-yl)piperidine-2,6-dione], the EC50 with eotaxin-3 release came to 31 nM. In addition, on STAT6, the half-maximal degradation concentration (DC50) is 0.75 nM.
Consider `C[C@H]1CN(Cc2ccc3c(c2)n(C2CC2)c(=O)n3C2CCC(=O)NC2=O)CCN1CC1CCN(C(=O)c2ccc(C3CCN(Cc4cc5c(-c6ccc(N)nc6)ccnc5n4C)CC3)cc2)CC1` (stereo partly drawn) [Example 3e13, 3-(5-(((S)-4-((1-(4-(1-((4-(6-aminopyridin-3-yl)-1-methyl-1H-pyrrolo[2,3-b]pyridin-2-yl)methyl)piperidin-4-yl)benzoyl)piperidin-4-yl)methyl)-3-methylpiperazin-1-yl)methyl)-3-cyclopropyl-2-oxo-2,3-dihydro-1H-benzo[d]imidazol-1-yl)piperidine-2,6-dione], for which, in the assay on eotaxin-3 release, the concentration for a half-maximal effect (EC50) worked out at 37.6 nM. Further, the DC50 on STAT6 was 0.9 nM and 1.1 nM.
Regarding `Cn1c(CN2CCC(c3ccc(C(=O)N4CCC(CN5CCN(Cc6cc7c(cc6F)n(C6CCC(=O)NC6=O)c(=O)n7C)CC5)CC4)cc3)CC2)cc2c(-c3ccc(N)nc3)ccnc21` (stereo not shown) [Example 3e15, 3-(5-((4-((1-(4-(1-((4-(6-aminopyridin-3-yl)-1-methyl-1H-pyrrolo[2,3-b]pyridin-2-yl)methyl)piperidin-4-yl)benzoyl)piperidin-4-yl)methyl)piperazin-1-yl)methyl)-6-fluoro-3-methyl-2-oxo-2,3-dihydro-1H-benzo[d]imidazol-1-yl)piperidine-2,6-dione], the EC50 in the assay with eotaxin-3 release is 135 nM. Also, at STAT6 (read-out: STAT6 degradation Emax (%)), the Emax (in general, the maximal effect, on the per cent scale that the assay sets) fell in the range of 70 to 80%.
